Experimental findings from patent publication US8247529B2, “Neoplasia targeting peptides and methods of using the same” (The Board of Trustees of the Leland Stanford Junior …, priority 2008, dated 2012) are described below.

“Also recorded” adds a separate entry of the source.

For assay [1], the system named is Seg-1 cells. The experiment in a line: Peptide binding on cell lines. To be noted: 100 μmol FITC-conjugated peptide, 15 min room temperature. Here is the method: (§1) FITC-conjugated peptide (100 μmol) was incubated with Segl (Panel a), OE21 (Panel c), QhTERT (Panel d) cells. Peptide binding were found in plasma membrane of >90% of Seg1 cells (Panel a).
(§2) 3×10^4-5×10^4 Seg-1, OE21, QhTERT cells were grown in chamber slides.
(§3) Blocking of non-specific binding to these cells was performed by adding 200 μL of 1% BSA diluted in PBS for 30 min. The cells were then incubated with 100 μmol of the targeted FITC conjugated peptide in serum free media for 15 min in room temperature. The scrambled peptide had been used as control. Wash cells 3-time use 200 μL PBS/0.5% TWEEN 20 in room temperature. Cell were fixed by ice cold Acetone 90 second. Then mounted by Vectashield mounting medium with DAPI. Fluorescence images were collected with a confocal microscope (Nikon 1000) at 200×. The fluorescence intensity from the cells in 3 images were averaged to assess peptide binding.

Assay [2] has as its system Barrett's mucosa with no dysplasia. Description: Confocal fluorescence of frozen sections of targeted biopsies after clinical imaging. It counts as binding. To be noted: biopsies after topical administration in human subjects, 400×. On the procedure:
(§4) Routine histology (H&E) of corresponding images is shown in Panel c and Panel d, magnification 400×.
(§5) No distinct architectural lesions can be appreciated. […] Targeted biopsies were collected from sites suspicious for HGD, non-dysplastic Barrett's esophagus. The specimens were embedded in OCT media, cooled to […], and cut into 10 μm horizontal sections on a cryostat.
(§6) The specimens were then evaluated for fluorescence on a tabletop confocal microscope, and an adjacent section was formalin fixed and stained with H&E for evaluation by two pathologists. […] Routine histology (H&E) of the corresponding images (Panels c and d) from adjacent frozen sections are also shown for purposes of comparison, magnification 400×.

In assay [3] the test system is Barrett's mucosa with high-grade dysplasia. The description is as above. The assay is classed as binding. As to conditions: biopsies after topical administration in human subjects, 400×. On the procedure: as §4, §5, §6
Assay [4] relates to TE7 cells. Description: Peptide binding on cell lines. To be noted: FITC-conjugated peptide. On the procedure: as §3
Assay [5] has as its system GIL hTERT(HGD) cells. Description: Peptide binding on cell lines. As to conditions: FITC-conjugated peptide. On the procedure: as §3
Assay [6] has as its system high-grade dysplasia in Barrett's esophagus. The experiment in a line: Clinical imaging (fluorescence endoscopy of distal esophagus). The assay is classed as in vivo. To be noted: human, topical ~3 ml 10 μM.
Source text: Endoscopic images collected in vivo of distal esophagus in human subject with Barrett's esophagus and high grade dysplasia on white-light endoscopy (Panel a) and fluorescence imaging (Panel b).
A prototype endoscope was used to collect fluorescence images of peptide binding from human subjects with Barrett's esophagus and high-grade dysplasia using the target peptide labeled with FITC. With IRB approval and informed consent, human subjects with a history of Barrett's esophagus and biopsy proven high-grade dysplasia scheduled for endoscopic mucosal resection were recruited into the study. After esophageal intubation, a 10 second video was collected in the white light mode. Then, ˜3 ml of peptide at a concentration of 10 μM was administered topically to the distal esophagus using a mist spray catheter. After 5 minutes for incubation, excess peptide was gently rinsed off with water, and another 10 second video was collected of the peptide targeted fluorescence image. The mucosa of the distal esophagus was then removed by endoscopic mucosal resection. Each video stream was exported into individual frames.
as §5

For assay [7], the system named is esophageal adenocarcinoma within Barrett's esophagus. Description: In vivo molecular imaging, small animal model (EGJ rat, fluorescence endoscopy). To be noted: topical 1 mL 100 μM, 5 min incubation, rinsed. The text has this:
In vivo molecular imaging has been performed in small animal models of esophageal neoplasia to localize binding by targeted peptides. A rigid endoscope for imaging the rat esophagus consists of a 9.5 Fr (3 mm) diameter rigid Hopkins II 0 deg telescope with a 11.5 cm working length (Karl Storz Veterinary Endoscopy, Goleta, Calif.). A 3 Fr (1 mm) diameter instrument channel is available to perform tissue biopsy. Fluorescence excitation light is produced with a 450 to 475 nm passband filter that can be manually placed into the optical path of a xenon (175 W) light source, and is delivered to the endoscope via a light guide. Fluorescence images were collected with 510 nm barrier filter to block the excitation light, and detected with a color CCD camera. The molecular imaging studies were performed in the surgically-altered (EGJ) rats after 36 weeks. The rats were fasted overnight, anesthetized using inhaled isoflurane, and placed in the supine position. The extremities and incisors were restrained to prevent injury to the animal. The endoscope was inserted into the distal esophagus using ˜1 to 2 ml of air injected through an instrument port to dilate the esophageal lumen. The FITC-labeled target peptide was topically administered through the instrument channel onto the distal esophagus in a 1 mL solution diluted in PBS at a concentration of 100 μM. After incubation for 5 minutes, excess peptide was rinsed off with tap water, and binding was evaluated by fluorescence. […] A complete examination usually lasts <2 minutes.

For assay [8], the system named is Seg1 cells. The experiment in a line: Competitive inhibition assay. It counts as binding. As to conditions: unconjugated peptide 100, 500, 1000 μmol (5 or 10 times higher concentration) 15 min prior to FITC-conjugated peptide, P<0.01. Here is the method:
Unconjugated peptide was incubated with Seg1 cells 15 min prior to adding of FITC-conjugated peptide in three different concentrations. […] Error bars represent mean±s.e.m. for 3 images. *P<0.01.
Competitive inhibition of targeted peptide binding was evaluated by incubating the cells in culture with unconjugated (no FITC) peptide at concentrations of 100, 500, and 1000 μmol. Three fluorescence images were collected at 200× from each well of the chamber slide using the same gain and exposure time. Images selected for analysis met the following criteria: 1) 70-90% cell confluence, 2) away from the edge of each well, 3) low background binding on cell free area of slide, 4) No change in cellular morphology. The mean cell numbers under three 200× view were record to calculate the percentage of peptide binding cells. Quantification of the fluorescence intensities was done by NIH Image J software to calculate pixel value between each group under the same threshold. Differences in the mean fluorescence intensities were compared using a student's t test.

The test system of assay [9] is Seg-1 cells (esophageal adenocarcinoma). The experiment in a line: Phage binding assay (cell binding of phage clones relative to insertless phage). To be noted: Seg-1 vs QhTERT, p<0.01. On the procedure:
Individual phage clones (2×10^11 pfu) were incubated at room temperature for 30 min with Segl and Q-hTERT cells. The columns represent the mean of measurements from three wells and the bars represent the standard deviation (SD). P-values for each group were calculated using student's t test.
According to the sequencing results some peptide sequence expressed on more than one phage clones. These phage clones had been amplified respectively for the binding assay. Seg-1 cell and Q-hTERT cell (None dysplasia Barrett's cell line) were growth in 6 well plate. 2×10^11 pfu each single clone phage were incubated with both cell in triple wells. Wild-type (no insert) phage (M13KE, New England Biolabs, Beverly, Mass.) was used as control. The incubation, two-step elution and tittering were done as mentioned above. […] Fold binding of each phage relative to none insert phage was measured. Different binding of each phage clone on Seg-1 and QhTERT were calculated using student's t test.

In assay [10] the test system is duodenal mucosa. The experiment in a line: Targeted peptide binding on esophageal mucosa (human tissue specimens). As to conditions: 100 μmol FITC-conjugated peptide in PBS, 15 min, fresh biopsy. Here is the method:
(§7) Specimens were incubated with 100 μmol FITC-conjugated peptide in PBS (Panels a, b, c, d). Hematoxylin and eosin staining (Panels e, f, g, h) was performed on adjacent sections to show the pathology diagnosis. In HGD tissue the binding site is a group of consecutive cells located in the lining of esophageal. In normal Barrett's mucosa the binding site is sporadic separated cells in some area of mucosa.
(§8) IRB approval was granted by the Stanford University Medical Center, the VA Palo Alto Health Care Systems, and El Camino Hospital. Human subjects with a history of Barrett's esophagus undergoing routine screening endoscopy were recruited for this study and informed consent was obtained. Subjects with coagulation abnormalities, or low tolerance for endoscopy were excluded from the study. Tissue specimens were collected using standard pinch biopsy from regions of endoscopically apparent Barrett's and squamous esophagus and duodenum mucosa. Histopathology was evaluated by two gastrointestinal pathologists in a blinded fashion according to common criteria (Goldblum, Mod Pathol 2003;16:316-24).
(§9) The tissue specimens were placed immediately after excision in an Eppendorf tube containin PBS at 4° C. PBS and incubated with100 μmol of targeted peptide ‘ASYNYDA’ for 15 minutes at room temperature. After being washed three times with PBS at 4° C., the specimens were embedded in OCT freezing compound (Sakura finetek USA), cut in 6 μm sections, and placed onto Poly-D-lysine coated slides. The tissue specimens were fixed in acetone at 4° C. for 90 seconds, counterstained with DAPI, and mounted in Vectashield. An adjacent serial section of the specimen was cut and stained with H&E for routine histology and comparison.
(§10) For each specimen 10 serial section were screened under microscope. Three highest intensity fluorescence images were collected at 400× using the same gain and exposure time. Fluorescence intensities of images were quantified by NIH Image J software to calculate pixel value between each sample under the same threshold (40, 255). Differences in the mean fluorescence intensities between four tissue types were compared using a student's t test.

Assay [11] deals with normal (non-dysplastic) Barrett's tissue. Described as above. As to conditions: 100 μmol FITC-conjugated peptide in PBS, 15 min, fresh biopsy. On the procedure:
as §7, §8, §9, §10

Assay [12] has as its system Barrett's with high-grade dysplasia (HGD) tissue. Described as above. Here is the method: as §7, §8, §9, §10
In assay [13] the test system is adjacent normal esophageal mucosa. The assay is described as above. To be noted: 100 μmol FITC-conjugated peptide in PBS, 15 min, fresh biopsy. On the procedure: as §7, §8, §9, §10
Assay [14] has as its system OE21 cells (squamous esophagus carcinoma). The experiment in a line: Peptide binding on cell lines. As to conditions: 100 μmol FITC-conjugated peptide, 15 min room temperature. Here is the method: as §1, §2, §3
In assay [15] the test system is QhTERT (normal Barrett's) cells. The experiment in a line: Peptide binding on cell lines. As to conditions: 100 μmol FITC-conjugated peptide, 15 min room temperature. Here is the method:
as §1, §2, §3

With YANSAYD [scrambled peptide-FITC], the “peptide binding to Seg-1 cells” value was “did not bind on any cells” in [1] and “no binding” in assay [1] (listed as Scrambled FITC-conjugated peptide).

For the substance ASYNYDA-GGGSK-FITC [Peptide 17-FITC], in [2], the “binding to Barrett's mucosa with no dysplasia (frozen section)” value is reported as “minimal binding”. Further, the entries for the “binding to Barrett's mucosa with high-grade dysplasia (frozen section)” value in assay [3] (listed as FITC-labeled peptide) and in assay [3] (listed as target peptide) were “significant binding” and “Significant binding”, respectively. The “percentage of TE7 cells with peptide binding on cytoplasm” value in assay [4] was 37%. Further, in assay [5], the “percentage of GIL hTERT(HGD) cells with peptide binding on cytoplasm” value was 1%. Moreover, in [1], the “percentage of Seg-1 cells with peptide binding on plasma membrane” value was over 90%. Also, the “fluorescence at site of lesion after topical peptide” value is given as “increased fluorescence intensity at a site; also recorded: increased fluorescence intensity at the site of the lesion” in [6] (5 min incubation, rinsed, listed as FITC-labeled target peptide); “Increased fluorescence intensity was observed at the site of the lesion” in assay [7] (listed as FITC-labeled target peptide); “increased fluorescence intensity at the site of the lesion” in [7] (listed as target peptide). For the same substance, the “target-to-background ratio (HGD vs non-dysplastic Barrett's metaplasia)” value in assay [6] (mean fluorescence of 5 independent regions) is listed as 1.52. The average target-to-background ratio in assay [7] was 5±2.

With ASYNYDA, the figures for the “inhibition of FITC-conjugated peptide binding to Seg1 cells by unconjugated peptide” value in [8] and in assay [8] (listed as unconjugated peptide 17) were “can be inhibited” and “could be inhibited”, respectively. The “fluorescence intensity with Seg-1 than with QhTERT cells” value in assay [9] stood at 5 times. For the same substance, the “peptide binding to duodenal mucosa” value in assay [10] was “did not bind”. In addition, in assay [11], the “peptide binding to normal Barrett's tissue” value was “bound”. In assay [12] (100 μmol FITC-conjugated peptide in PBS, 15 min, fresh biopsy), the “peptide binding to Barrett's with high-grade dysplasia tissue” value was “bound”. In [12] (HGD vs Barrett's, duodenal and normal esophageal mucosa, P<0.01), the “quantization of peptide binding (fluorescence intensity, NIH Image J), HGD vs other tissues” value is “higher preferential bind on HGD than other tissues”. Besides, in assay [13], the “peptide binding to adjacent normal esophageal mucosa” value is “did not bind”. For the same substance, in [14], the “peptide binding to OE21 cells” value was “didn't binding”. The “peptide binding to QhTERT cells” value in [15] was “didn't binding”.
